# In the NIST ThermoML archive (doi:10.1016/j.tca.2011.11.025):
# Numbers after ± are expanded uncertainties.
# Assay: excess molar enthalpy (molar enthalpy of mixing); xn = mol fraction of the nth substance listed
# Conditions: 308.15 K, 101 kPa, Liquid, 2-drop calorimeter
smiles,measurement,setting,value
"Cc1ccc(C)cc1 [1,4-dimethylbenzene] + C1COCCO1",excess molar enthalpy,x2 = 0.0757,0.0512 ± 0.0015 kJ/mol
same,excess molar enthalpy,x2 = 0.1355,0.102 ± 0.0025 kJ/mol
same,excess molar enthalpy,x2 = 0.1984,0.151 ± 0.0035 kJ/mol
same,excess molar enthalpy,x2 = 0.2656,0.201 ± 0.0046 kJ/mol
same,excess molar enthalpy,x2 = 0.3025,0.225 ± 0.0051 kJ/mol
same,excess molar enthalpy,x2 = 0.3648,0.259 ± 0.0058 kJ/mol
same,excess molar enthalpy,x2 = 0.4154,0.282 ± 0.0063 kJ/mol
same,excess molar enthalpy,x2 = 0.4759,0.295 ± 0.0065 kJ/mol
same,excess molar enthalpy,x2 = 0.5524,0.3 ± 0.0066 kJ/mol
same,excess molar enthalpy,x2 = 0.6251,0.287 ± 0.0064 kJ/mol
same,excess molar enthalpy,x2 = 0.6956,0.262 ± 0.0058 kJ/mol
same,excess molar enthalpy,x2 = 0.7415,0.236 ± 0.0053 kJ/mol
same,excess molar enthalpy,x2 = 0.7867,0.204 ± 0.0046 kJ/mol
same,excess molar enthalpy,x2 = 0.8521,0.148 ± 0.0035 kJ/mol
same,excess molar enthalpy,x2 = 0.8953,0.109 ± 0.0026 kJ/mol
same,excess molar enthalpy,x2 = 0.9326,0.0705 ± 0.0019 kJ/mol
"Cc1cccc(C)c1 [1,3-dimethylbenzene] + C1COCCO1",excess molar enthalpy,x2 = 0.0638,0.0623 ± 0.0017 kJ/mol
same,excess molar enthalpy,x2 = 0.1239,0.121 ± 0.0029 kJ/mol
same,excess molar enthalpy,x2 = 0.1845,0.18 ± 0.0041 kJ/mol
same,excess molar enthalpy,x2 = 0.223,0.207 ± 0.0047 kJ/mol
same,excess molar enthalpy,x2 = 0.2742,0.248 ± 0.0055 kJ/mol
same,excess molar enthalpy,x2 = 0.3357,0.282 ± 0.0063 kJ/mol
same,excess molar enthalpy,x2 = 0.4212,0.318 ± 0.007 kJ/mol
same,excess molar enthalpy,x2 = 0.4781,0.333 ± 0.0073 kJ/mol
same,excess molar enthalpy,x2 = 0.5516,0.333 ± 0.0073 kJ/mol
same,excess molar enthalpy,x2 = 0.6212,0.313 ± 0.0069 kJ/mol
same,excess molar enthalpy,x2 = 0.6836,0.288 ± 0.0064 kJ/mol
same,excess molar enthalpy,x2 = 0.7583,0.241 ± 0.0054 kJ/mol
same,excess molar enthalpy,x2 = 0.7797,0.224 ± 0.005 kJ/mol
same,excess molar enthalpy,x2 = 0.8183,0.196 ± 0.0044 kJ/mol
same,excess molar enthalpy,x2 = 0.8884,0.125 ± 0.003 kJ/mol
same,excess molar enthalpy,x2 = 0.9481,0.0603 ± 0.0017 kJ/mol
